From patent US8440633B2, “Anthelmintic combination” (AH USA 42 LLC, priority 2007, dated 2013)

Columns and labels:
Format in all cases: in vivo
[1] = tested on: Haemonchus contortus; assay: Total worm count, resistant strains in sheep (Example 3); settings: for % efficacy (arithmetic mean): doses as the 6th table, Day 15
Protocol: (§1) Sheep were artificially infected with infective L3 larvae in a mixed culture containing Haemonchus contortus, Teladorsagia spp and Trichostrongylus spp, and efficacy was measured by total worm counts in the treatment group compared to the control group following administration of treatment. The animals were treated as outlined below with the commercially available reference products included to confirm the resistance profile of the above parasites.
(§2) All study animals were necropsied on Day 15 after treatment. Abomasa and small intestines were collected for worm recovery and total worm count estimations.

[2] = tested on: Teladorsagia spp (total); assay: as above; settings: for % efficacy (arithmetic mean): doses as the 6th table, Day 15, NEG = negative efficacy
Protocol: as §1, §2

[3] = tested on: Trich. colubriformis; assay: as above; settings: for % efficacy (arithmetic mean): doses as the 6th table, Day 15
Protocol: as §1, §2

[4] = tested on: Teladorsagia circumcincta; assay: Total worm count, resistant strains in sheep (Example 2); settings: for % efficacy (arithmetic mean): doses as the 4th table, Day 15, NEG = negative efficacy, mean count higher than control
Protocol: (§3) Sheep were artificially infected with L3 larvae of Teladorsagia (Ostertagia) circumcincta and Trichostrongylus colubriformis and efficacy was measured by total worm counts in the treatment group compared to the control group following administration of treatment.
as §2

[5] = tested on: Teladorsagia trifurcata; assay: as above; settings: for % efficacy (arithmetic mean): doses as the 4th table, Day 15, NEG = negative efficacy, mean count higher than control
Protocol: as §3, §2

[6] = tested on: Trichostrongylus colubriformis; assay: as above; settings: for % efficacy (arithmetic mean): doses as the 4th table, Day 15
Protocol: as §3, §2

[7] = Example 3, resistant Haemonchus contortus
[8] = Example 3, resistant Teladorsagia spp (total)
[9] = Example 3, resistant Trich. colubriformis
[10] = Example 2, resistant Teladorsagia circumcincta
[11] = Example 2, Teladorsagia trifurcata
[12] = Example 2, resistant Trichostrongylus colubriformis
[13] = Example 3, resistant Haemonchus contortus, per os once Day 0 (2-DOPH 2 + abamectin 0.2; albendazole 3.8; levamisole 8; ivermectin 0.2 mg/kg), necropsy Day 15
[14] = Example 3, resistant Teladorsagia spp (total), per os once Day 0 (2-DOPH 2 + abamectin 0.2; albendazole 3.8; levamisole 8; ivermectin 0.2 mg/kg), necropsy Day 15
[15] = Example 3, resistant Trich. colubriformis, per os once Day 0 (2-DOPH 2 + abamectin 0.2; albendazole 3.8; levamisole 8; ivermectin 0.2 mg/kg), necropsy Day 15
[16] = Example 2, resistant Teladorsagia circumcincta, per os once Day 0 (2-DOPH 2 + abamectin 0.2; albendazole 3.8; levamisole 8; ivermectin 0.2 mg/kg), necropsy Day 15
[17] = Example 2, Teladorsagia trifurcata, per os once Day 0 (2-DOPH 2 + abamectin 0.2; albendazole 3.8; levamisole 8; ivermectin 0.2 mg/kg), necropsy Day 15
[18] = Example 2, resistant Trichostrongylus colubriformis, per os once Day 0 (2-DOPH 2 + abamectin 0.2; albendazole 3.8; levamisole 8; ivermectin 0.2 mg/kg), necropsy Day 15

Row | Compound | % efficacy (arithmetic mean) [1, 7] | Arithmetic Mean (total worm count) ([1]; in vivo) | Prevalence (total worm count) ([1]; in vivo) | Range (total worm count) ([1]; in vivo) | % efficacy (arithmetic mean) [2, 8] | Arithmetic Mean (total worm count) ([2]; in vivo) | Prevalence (total worm count) ([2]; in vivo) | Range (total worm count) ([2]; in vivo) | % efficacy (arithmetic mean) [3, 9] | Arithmetic Mean (total worm count) ([3]; in vivo) | Prevalence (total worm count) ([3]; in vivo) | Range (total worm count) ([3]; in vivo) | % efficacy (arithmetic mean) [4, 10] | Arithmetic Mean (total worm count) ([4]; in vivo) | Prevalence (total worm count) ([4]; in vivo) | Range (total worm count) ([4]; in vivo) | % efficacy (arithmetic mean) [5, 11] | Arithmetic Mean (total worm count) ([5]; in vivo) | Prevalence (total worm count) ([5]; in vivo) | % efficacy (arithmetic mean) [6, 12] | also measured
1 | CCCSc1ccc2nc(NC(=O)OC)[nH]c2c1 [Albendazole] | 80.57% | 164.0 | 8/10 | 0-320 | 58.16% | 590.0 | 10/10 | 160-1200 | 25.00% | 3828.0 | 10/10 | 2600-5160 | NEG^ | 2184.4 | 10/10 | 80-3708 | NEG^ | 281.6 | 7/10 | 56.44% | Range (total worm count) ([5]; in vivo): 0-712; Arithmetic Mean (total worm count) ([6]; in vivo): 1812.0; Prevalence (total worm count) ([6]; in vivo): 10/10; Range (total worm count) ([6]; in vivo): 1320-2660
2 | c1ccc([C@H]2CN3CCSC3=N2)cc1 [Levamisole] | 99.76% |  |  |  | 96.31% |  |  |  | 15.34% |  |  |  | 82.67% |  |  |  | 84.08% |  |  | 84.31% | Arithmetic Mean (total worm count) [1, 13]: 2.0; Prevalence (total worm count) [1, 13]: 1/10; Range (total worm count) [1, 13]: 0-20; Arithmetic Mean (total worm count) [2, 14]: 52.0; Prevalence (total worm count) [2, 14]: 8/10; Range (total worm count) [2, 14]: 0-160; Arithmetic Mean (total worm count) [3, 15]: 4320.7; Prevalence (total worm count) [3, 15]: 10/10; Range (total worm count) [3, 15]: 2120-5800; Arithmetic Mean (total worm count) [4, 16]: 292.8; Prevalence (total worm count) [4, 16]: 7/9; Range (total worm count) [4, 16]: 0-1020; Arithmetic Mean (total worm count) [5, 17]: 36.7; Prevalence (total worm count) [5, 17]: 4/9; Range (total worm count) [5, 17]: 0-180; Arithmetic Mean (total worm count) [6, 18]: 652.6; Prevalence (total worm count) [6, 18]: 9/9; Range (total worm count) [6, 18]: 300-1500
3 | Ivermectin | 47.63% | 442.0 | 8/10 | 0-940 | NEG | 1680.0 | 10/10 | 280-3800 | 11.63% | 4510.0 | 10/10 | 3140-5920 | NEG^ | 2093.2 | 10/10 | 680-3600 | 15.49% | 194.8 | 7/10 | 55.29% | % efficacy (arithmetic mean) ([4]; Example 2, resistant Teladorsagia circumcincta, listed as ivermectin): zero; Range (total worm count) ([5]; in vivo): 0-459; Arithmetic Mean (total worm count) ([6]; in vivo): 1860.0; Prevalence (total worm count) ([6]; in vivo): 10/10; Range (total worm count) ([6]; in vivo): 400-4060
